Tested on: rats
Test: Urinary hydrogen peroxide level after giving coffee to rats
Format: in vivo
Conditions: rats given coffee
Text: It is therefore desired to remove hydroxyhydroquinone from coffee.

With Oc1ccc(O)c(O)c1 [hydroxyhydroquinone] the “generation of hydrogen peroxide in the bodies” value was “caused by hydroxyhydroquinone”.

— US20070248727A1, “Method for Removing Hydrohydroquinone” (KAO CORPORATION, priority 2004, published 2007)
